Measurements as given in US20090118350A1, “Biomarkers for Identifying Efficacy of Tegaserod in Patients with Chronic Constipation” (priority 2005, published 2009).

Test system: patients with chronic constipation
Experiment: Clinical trial, secondary efficacy RESP12: increase of 1 or more CSBM/week over baseline after 12 weeks of treatment, by subgroup and genotype
Format: in vivo, human
Conditions: for Odds Ratio: 6-mg bid vs placebo; for % Responders T6 / Odds Ratio (T6 v P) / % Responders: 6-mg bid
Description: Introduction. A clinical trial was performed to evaluate the efficacy of tegaserod (Zelmac®/Zelnorm™) at 6 mg bid (12 mg/day) or 2 mg bid (4 mg/day) vs. placebo by measuring the number of complete spontaneous bowel movements (CSBM) during the first 4 weeks of treatment. Secondary objectives included evaluating the number of CSBM during the entire 12-week treatment period, bowel habits, laxative use, and safety and tolerability issues. The clinical trial design consisted of a 2-week baseline period without medication, a 12-week, randomized, double-blind, placebo-controlled treatment period, and a 4-week withdrawal period without study medication. As part of the clinical trial, DNA was collected from patients at screening for pharmacogenetic analysis to evaluate genetic polymorphisms relating to drug targets and disease aetiology.
Clinical assessments. […] The primary efficacy endpoint evaluated was the increase of 1 or more CSBM/week over baseline after 4 weeks of treatment. A secondary endpoint evaluated in this genotyping study was RESP12, the increase of 1 of more CSBM/week over baseline after 12 weeks of treatment. Patients were classified as responders if they met these criteria and had completed at least 7 days of treatment. Additional secondary efficacy assessments were evaluated based on the weekly diary assessments, such as bothersome constipation, bothersome abdominal pain, and satisfaction with bowel habits at the end of the 12-week treatment period (using the baseline value as a co-variant for analysis).
Statistical analysis. Statistical analysis was performed using SAS version 8.2 (The SAS Institute, Cary, N.C., USA). Analysis methods included Fisher's Exact tests, analysis of Covariance (ANCOVA), logistic regression, and Mantel-Haenzel tests to determine odds ratios and 95% confidence intervals, with significance established at p<0.05. Calculation of linkage disequilibrium was performed using the GOLD (graphical overview of linkage disequilibrium) method described by Abecasis & Cookson, Bioinformatics 16: 182-3 (2000).
Secondary efficacy endpoint: response after 12 weeks of treatment. The same comparison as above was performed using the secondary efficacy endpoint of a mean increase of 1 or more CSBM/week over baseline after 12 weeks of treatment. The results for the 12 individual “high responder” SNPs are presented in TABLE 9 and the results using the comparison of individuals with or without at least one of the twelve SNPs is presented in TABLE 10.

[1] = All Caucasians (ITT, >=7 days), Age <65, M + F
[2] = All Caucasians (ITT, >=7 days), Age >=65, M + F
[3] = All Caucasians (ITT, >=7 days), Age All, Female
[4] = All Caucasians (ITT, >=7 days), Age All, M + F
[5] = All Caucasians (ITT, >=7 days), Age All, Male
[6] = All genotyped (ITT, >=7 days), Age <65, M + F
[7] = All genotyped (ITT, >=7 days), Age >=65, M + F
[8] = All genotyped (ITT, >=7 days), Age All, Female
[9] = All genotyped (ITT, >=7 days), Age All, M + F
[10] = All genotyped (ITT, >=7 days), Age All, Male
[11] = All patients (ITT, >=7 days), Age <65, M + F
[12] = All patients (ITT, >=7 days), Age >=65, M + F
[13] = All patients (ITT, >=7 days), Age All, Female
[14] = All patients (ITT, >=7 days), Age All, M + F
[15] = All patients (ITT, >=7 days), Age All, Male
[16] = Caucasians genotyped (ITT, >=7 days), Age <65, M + F
[17] = Caucasians genotyped (ITT, >=7 days), Age >=65, M + F
[18] = Caucasians genotyped (ITT, >=7 days), Age All, Female
[19] = Caucasians genotyped (ITT, >=7 days), Age All, M + F
[20] = Caucasians genotyped (ITT, >=7 days), Age All, Male
[21] = Female (All ages), 0-12 of the 12 SNPs
[22] = Female (All ages), 0 of the 12 SNPs
[23] = Female (All ages), 1-12 of the 12 SNPs
[24] = M + F (<65), 0-12 of the 12 SNPs
[25] = M + F (<65), 1-12 of the 12 SNPs
[26] = M + F (>=65), 0-12 of the 12 SNPs
[27] = M + F (>=65), 1-12 of the 12 SNPs
[28] = M + F (All ages), 0-12 of the 12 SNPs
[29] = M + F (All ages), 0 of the 12 SNPs
[30] = M + F (All ages), 1-12 of the 12 SNPs
[31] = Male (All ages), 0-12 of the 12 SNPs
[32] = Male (All ages), 0 of the 12 SNPs
[33] = Male (All ages), 1-12 of the 12 SNPs

[H]/N=C(/NCCCCC)N/N=C/c1c[nH]c2ccc(OC)cc12 [tegaserod, Tegaserod]
Odds Ratio [1]: 2.8
Odds Ratio [2]: 1.4
Odds Ratio [3]: 2.5
Odds Ratio [4]: 2.5
Odds Ratio [5]: 2.5
Odds Ratio [6]: 2.6
Odds Ratio [7]: 2.6
Odds Ratio [8]: 2.5
Odds Ratio [9]: 2.6
Odds Ratio [10]: 2.9
Odds Ratio [11]: 2.3
Odds Ratio [12]: 1.6
Odds Ratio [13]: 2.2
Odds Ratio [14]: 2.3
Odds Ratio [15]: 2.6
Odds Ratio [16]: 3.0
Odds Ratio [17]: 2.3
Odds Ratio [18]: 2.8
Odds Ratio [19]: 2.8
Odds Ratio [20]: 3.0
% Responders T6 (0 of 14 SNPs): 39%
Odds Ratio (T6 v P) (0 of 14 SNPs): 1.2
% Responders T6 (>=1 of 14 SNPs): 54%
Odds Ratio (T6 v P) (>=1 of 14 SNPs): 4.4
% Responders T6 (AQP3 (1838) genotype CC): 47%
Odds Ratio (T6 v P) (AQP3 (1838) genotype CC): 2.7
% Responders T6 (AQP3 (1838) genotype CG): 49%
Odds Ratio (T6 v P) (AQP3 (1838) genotype CG): 2.5
% Responders T6 (AQP3 (1838) genotype GG): 64%
Odds Ratio (T6 v P) (AQP3 (1838) genotype GG): 8.1
% Responders [1]: 48%
% Responders [2]: 38%
% Responders [3]: 47%
% Responders [4]: 47%
% Responders [5]: 45%
% Responders [6]: 47%
% Responders [7]: 56%
% Responders [8]: 47%
% Responders [9]: 47%
% Responders [10]: 52%
% Responders [11]: 46%
% Responders [12]: 40%
% Responders [13]: 46%
% Responders [14]: 46%
% Responders [15]: 43%
% Responders [16]: 49%
% Responders [17]: 53%
% Responders [18]: 48%
% Responders [19]: 49%
% Responders [20]: 57%
% Responders T6 [21]: 48%
Odds Ratio (T6 v P) [21]: 2.8
% Responders T6 [22]: 36%
Odds Ratio (T6 v P) [22]: 1.4
% Responders T6 [23]: 61%
Odds Ratio (T6 v P) [23]: 5.5
% Responders T6 (HTR3B (3755) genotype AA): 49%
Odds Ratio (T6 v P) (HTR3B (3755) genotype AA): 3.0
% Responders T6 (HTR3B (3755) genotype AC): 47%
Odds Ratio (T6 v P) (HTR3B (3755) genotype AC): 2.3
% Responders T6 (HTR3B (3755) genotype CC): 67%
Odds Ratio (T6 v P) (HTR3B (3755) genotype CC): 5.1
% Responders T6 (HTR4 (1746) genotype CC): 44%
Odds Ratio (T6 v P) (HTR4 (1746) genotype CC): 3.1
% Responders T6 (HTR4 (1746) genotype CT): 49%
Odds Ratio (T6 v P) (HTR4 (1746) genotype CT): 2.6
% Responders T6 (HTR4 (1746) genotype TT): 70%
Odds Ratio (T6 v P) (HTR4 (1746) genotype TT): 3.2
% Responders T6 (HTR4 (3743) genotype AA): 48%
Odds Ratio (T6 v P) (HTR4 (3743) genotype AA): 3.7
% Responders T6 (HTR4 (3743) genotype AC): 52%
Odds Ratio (T6 v P) (HTR4 (3743) genotype AC): 4.7
% Responders T6 (HTR4 (3743) genotype CC): 78%
Odds Ratio (T6 v P) (HTR4 (3743) genotype CC): 8.2
% Responders T6 (HTR4 (3747) genotype AA): 41%
Odds Ratio (T6 v P) (HTR4 (3747) genotype AA): 2.7
% Responders T6 (HTR4 (3747) genotype AT): 54%
Odds Ratio (T6 v P) (HTR4 (3747) genotype AT): 3.1
% Responders T6 (HTR4 (3747) genotype TT): 65%
Odds Ratio (T6 v P) (HTR4 (3747) genotype TT): 3.0
% Responders T6 (HTR4 (3753) genotype CC): 45%
Odds Ratio (T6 v P) (HTR4 (3753) genotype CC): 3.1
% Responders T6 (HTR4 (3753) genotype CT): 50%
Odds Ratio (T6 v P) (HTR4 (3753) genotype CT): 2.7
% Responders T6 (HTR4 (3753) genotype TT): 70%
Odds Ratio (T6 v P) (HTR4 (3753) genotype TT): 3.5
% Responders T6 (HTR4 (3754) genotype AA): 50%
Odds Ratio (T6 v P) (HTR4 (3754) genotype AA): 4.1
% Responders T6 (HTR4 (3754) genotype AT): 45%
Odds Ratio (T6 v P) (HTR4 (3754) genotype AT): 2.0
% Responders T6 (HTR4 (3754) genotype TT): 63%
Odds Ratio (T6 v P) (HTR4 (3754) genotype TT): 2.8
% Responders T6 (HTR4 (3756) genotype AA): 39%
Odds Ratio (T6 v P) (HTR4 (3756) genotype AA): 2.6
% Responders T6 (HTR4 (3756) genotype AC): 54%
Odds Ratio (T6 v P) (HTR4 (3756) genotype AC): 3.0
% Responders T6 (HTR4 (3756) genotype CC): 71%
Odds Ratio (T6 v P) (HTR4 (3756) genotype CC): 4.6
% Responders T6 [24]: 49%
Odds Ratio (T6 v P) [24]: 3.0
% Responders T6 (M + F (<65), 0 of the 12 SNPs): 37%
Odds Ratio (T6 v P) (M + F (<65), 0 of the 12 SNPs): 1.6
% Responders T6 [25]: 62%
Odds Ratio (T6 v P) [25]: 5.6
% Responders T6 [26]: 53%
Odds Ratio (T6 v P) [26]: 2.3
% Responders T6 (M + F (>=65), 0 of the 12 SNPs): 29%
Odds Ratio (T6 v P) (M + F (>=65), 0 of the 12 SNPs): 0.4
% Responders T6 [27]: 70%
Odds Ratio (T6 v P) [27]: 10.1
% Responders T6 [28]: 49%
Odds Ratio (T6 v P) [28]: 2.8
% Responders T6 [29]: 36%
Odds Ratio (T6 v P) [29]: 1.3
% Responders T6 [30]: 63%
Odds Ratio (T6 v P) [30]: 6.0
% Responders T6 (MLN (1783) genotype CC): 49%
Odds Ratio (T6 v P) (MLN (1783) genotype CC): 2.6
% Responders T6 (MLN (1783) genotype CT): 44%
Odds Ratio (T6 v P) (MLN (1783) genotype CT): 2.2
% Responders T6 (MLN (1783) genotype TT): 67%
Odds Ratio (T6 v P) (MLN (1783) genotype TT): 12.0
% Responders T6 [31]: 57%
Odds Ratio (T6 v P) [31]: 3.0
% Responders T6 [32]: 40%
Odds Ratio (T6 v P) [32]: 0.8
% Responders T6 [33]: 73%
Odds Ratio (T6 v P) [33]: 13.3
% Responders T6 (SCNN1A (3806) genotype GG): 62%
Odds Ratio (T6 v P) (SCNN1A (3806) genotype GG): 5.9
% Responders T6 (SCNN1A (3806) genotype GT): 49%
Odds Ratio (T6 v P) (SCNN1A (3806) genotype GT): 2.6
% Responders T6 (SCNN1A (3806) genotype TT): 44%
Odds Ratio (T6 v P) (SCNN1A (3806) genotype TT): 2.2
% Responders T6 (SLC12A2 (1842) genotype AA): 54%
Odds Ratio (T6 v P) (SLC12A2 (1842) genotype AA): 6.2
% Responders T6 (SLC12A2 (1842) genotype AG): 47%
Odds Ratio (T6 v P) (SLC12A2 (1842) genotype AG): 2.7
% Responders T6 (SLC12A2 (1842) genotype GG): 50%
Odds Ratio (T6 v P) (SLC12A2 (1842) genotype GG): 2.5
% Responders T6 (SLC12A2 (3801) genotype CC): 58%
Odds Ratio (T6 v P) (SLC12A2 (3801) genotype CC): 7.9
% Responders T6 (SLC12A2 (3801) genotype CT): 49%
Odds Ratio (T6 v P) (SLC12A2 (3801) genotype CT): 2.4
% Responders T6 (SLC12A2 (3801) genotype TT): 50%
Odds Ratio (T6 v P) (SLC12A2 (3801) genotype TT): 2.9
% Responders T6 (TPH1 (1756) genotype GG): 51%
Odds Ratio (T6 v P) (TPH1 (1756) genotype GG): 6.1
% Responders T6 (TPH1 (1756) genotype GT): 51%
Odds Ratio (T6 v P) (TPH1 (1756) genotype GT): 2.4
% Responders T6 (TPH1 (1756) genotype TT): 45%
Odds Ratio (T6 v P) (TPH1 (1756) genotype TT): 2.2
% Responders T6 (TPH1 (3784) genotype CC): 41%
Odds Ratio (T6 v P) (TPH1 (3784) genotype CC): 1.9
% Responders T6 (TPH1 (3784) genotype CT): 52%
Odds Ratio (T6 v P) (TPH1 (3784) genotype CT): 2.5
% Responders T6 (TPH1 (3784) genotype TT): 51%
Odds Ratio (T6 v P) (TPH1 (3784) genotype TT): 5.8
% Responders T6 (all genotypes): 49%
Odds Ratio (T6 v P) (all genotypes): 2.8
% Responders T6 (all genotypes (Table 11)): 49%
Odds Ratio (T6 v P) (all genotypes (Table 11)): 2.8
response rate (high responder genotypes of HTR4, tegaserod-treated patients): > 60%
